Reference: ChEMBL document CHEMBL1155642, “In vitro antiplasmodial, antiamoebic, and cytotoxic activities of some monomeric isoquinoline alkaloids” (J Nat Prod, 2000)
Counter-ions that a name gives are not always drawn. The source made the active and inactive calls. No cut-off for these calls is given here.

Key:
Entamoeba histolytica [1] = experiment: Antiamoebic activity against Entamoeba histolytica NIH 200 after 72 hrs by microdilution technique; format: functional, organism-based; settings: NIH 200, 72 h
KB = experiment: Cytotoxicity against human KB cells after 72 hrs; format: functional, cell-based
Plasmodium falciparum = experiment: Antiplasmodial activity against multi drug-resistant Plasmodium falciparum K1 in erythrocytes by [3H]hypoxanthine uptake; format: functional, organism-based
Entamoeba histolytica [2] = experiment: Antiamoebic activity against Entamoeba histolytica NIH 200 in guinea pig at 2 mg/kg, iv; format: functional, organism-based; design: dose 2 mg/kg
Entamoeba histolytica [3] = experiment: Antiamoebic activity against Entamoeba histolytica NIH 200 in guinea pig at 3 mg/kg, po; format: functional, organism-based; design: dose 3 mg/kg

Structure (SMILES)	IC50 (Entamoeba histolytica [1])	IC50 (KB)	IC50 (Plasmodium falciparum)	Activity (Entamoeba histolytica [2])	Activity (Entamoeba histolytica [3])
COC1=C[C@@H]2[C@@H]3Cc4ccc(OC)c(O)c4[C@]2(CCN3C)CC1=O [SINOMENINE]	56.2 µM	> 759 µM	> 152 µM		
COc1cc([C@@H]2c3cc4c(cc3[C@H](O)[C@H]3COC(=O)[C@H]23)OCO4)cc(OC)c1OC [PODOFILOX]		0.008 µM			
COC1=C[C@]23CCN(C)[C@H](Cc4cc(OC)c(OC)cc42)C3=CC1=O [O-METHYLFLAVINANTINE]	73.4 µM	> 734 µM	207 µM		
COc1ccc2c(c1OC)CN1CCc3cc4c(cc3[C@@H]1C2)OCO4 [CANADINE]	126 µM	> 734 µM	> 147 µM		
COc1cc2c(cc1OC)-c1c3c(c(OC)c4c1[C@H](C2)N(C)CC4)OCO3 [OCOTEINE]	51.2 µM	74.3 µM	34.8 µM		
CC[C@H]1CN2CCc3cc(OC)c(OC)cc3[C@@H]2C[C@@H]1C[C@H]1NCCc2cc(OC)c(OC)cc21 [EMETINE HYDROCHLORIDE]	2.23 µM				
COc1cc2c3c(c1O)-c1c(ccc(OC)c1OC)C[C@@H]3NCC2 [NORCORYDINE]	76.4 µM	> 733 µM	3.08 µM		
COc1ccc2c(c1OC)-c1c(OC)c(OC)cc3c1[C@H](C2)NCC3 [CATALPIFOLINE]	147 µM	> 733 µM	24.1 µM		
COc1cc2cc3c4c(c(OC)c5c(c4c2cc1OC)OCO5)CCN3C [DEHYDROOCOTEINE]	136 µM	> 341 µM	5.78 µM		
COc1cc2c(cc1O)-c1cc3ccc(OC)c(OC)c3c[n+]1CC2 [COLUMBAMINE CHLORIDE]	156 µM	77.9 µM	1.92 µM		
COc1ccc2cc3[n+](cc2c1OC)CCc1cc2c(cc1-3)OCO2 [BERBERINE CHLORIDE]	111 µM	7.32 µM	0.968 µM	Active	Active
COc1ccc2c(c1OC)CN(C)CCc1cc3c(cc1C(=O)C2)OCO3 [ALLOCRYPTOPINE]	135 µM	> 338 µM	5.08 µM		
COC1=C[C@]23CCN(C)[C@H](Cc4ccc(OC)c(O)c42)C3=CC1=O [SALUTARIDINE]	76.4 µM	> 764 µM	> 95 µM		
COc1cc2c(cc1O)CC[n+]1cc3c(OC)c(OC)ccc3cc1-2 [JATRORRHIZINE CHLORIDE]	82.7 µM	> 335 µM	3.15 µM		
COc1ccc2c(c1OC)[C@]13CCC(=O)[C@]4(O)O[C@H]2C[C@]14N(C)CC3 [METAPHANINE HYDROBROMIDE]	58.6 µM	> 586 µM	> 117 µM		
COc1c(O)ccc2cc3[n+](cc12)CCc1cc2c(cc1-3)OCO2 [THALIFENDINE]	116 µM	> 699 µM	7.91 µM		
COc1cc2c(cc1O)CC[n+]1cc3cc(OC)c(OC)cc3cc1-2 [DEHYDRODISCRETINE CHLORIDE]	66.9 µM	> 335 µM	0.639 µM		
COc1ccc2c(c1O)-c1c(O)c(OC)cc3c1[C@H](C2)[N+](C)(C)CC3 [MAGNOFLORINE IODIDE]	111 µM	> 533 µM	> 107 µM		
COc1cc2c(cc1OC)-c1c3c(c(OC)c4ccnc(c14)C2=O)OCO3 [THALICMININE]	75.1 µM	> 685 µM	16.2 µM		
COc1ccc2c(c1O)-c1c(OC)c(OC)cc3c1[C@H](C2)N(C)CC3 [ISOCORYDINE]	> 147 µM	> 733 µM	37 µM		
COc1cc2c3c(c1O)-c1c(ccc(OC)c1OC)C[C@@H]3N(C)CC2 [CORYDINE]	90.6 µM	> 733 µM	22.3 µM		
